# Laboratory results taken from patent US7226923B2, “Phthalazinone derivatives” (Hoffman-La Roche Inc., priority 2004, dated 2007).
# Target: T1, Aurora A (Homo sapiens, UniProt O14965)
# T1 construct: C-terminally Histidine4 (His4)-tagged Aurora A full-length protein
# T1 sequence (O14965 1-403): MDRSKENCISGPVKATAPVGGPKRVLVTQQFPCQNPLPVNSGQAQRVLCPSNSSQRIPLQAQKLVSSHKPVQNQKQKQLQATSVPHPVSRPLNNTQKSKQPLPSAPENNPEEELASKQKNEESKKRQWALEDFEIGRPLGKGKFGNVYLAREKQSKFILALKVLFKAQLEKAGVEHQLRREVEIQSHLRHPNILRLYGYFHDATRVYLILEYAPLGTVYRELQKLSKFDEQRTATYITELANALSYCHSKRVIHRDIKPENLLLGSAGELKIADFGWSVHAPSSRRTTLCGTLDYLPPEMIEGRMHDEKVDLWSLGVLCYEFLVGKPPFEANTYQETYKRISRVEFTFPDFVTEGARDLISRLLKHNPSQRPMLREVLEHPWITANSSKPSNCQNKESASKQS
# Experiment: IC50 determination for inhibitors of Aurora A (96 MTP-ELISA)
# Type: biochemical
# Details: His4-tagged full-length Aurora A 250 ng/ml, PKB-GSK2 200 nM, ATP 4 μM, 90 min at room temperature, read-out: IC50 Aurora A kinase inhibition
# Description: IC50 Determination for Inhibitors of Aurora A
# • Aurora A is a serine threonine kinase involved in spindle assembly and chromosome segregation.
# The assay is a typically ELISA-type assay where biotinylated substrate (PKB-GSK2) is phosphorylated. Phosphorylation is detected by peroxidase (POD) labelled polyclonal antibody (PAK<M-Ig>S-IgG-POD) and phosphopeptide monoclonal antibody (Mab) (MAK<P-GSK>M-27E5-IgG). The assay is validated for IC50-determination.
# Method • This assay is performed in 96-well format for IC50 determination with 5 samples (each with 8 concentrations by twofold testing), 100 μl incubation volume and the following plate layout: […]
row,SMILES,IC50 [nM]
1,"Cc1cc(Nc2nn(-c3ccc(C(F)(F)F)cc3Cl)c(=O)c3ccccc23)n[nH]1 [Example W-1, 2-(2-Chloro-4-trifluoromethyl-phenyl)-4-(5-methyl-1H-pyrazol-3-ylamino)-2H-phthalazin-1-one]",100 to 1000
2,"COc1ccc(C(=O)Cn2nc(Nc3cc(C)[nH]n3)c3ccccc3c2=O)cc1 [Example E-4, 2-[2-(4-Methoxy-phenyl)-2-oxo-ethyl]-4-(5-methyl-1H-pyrazol-3-ylamino)-2H-phthalazin-1-one]",1 to 100
3,"Cc1cc(Nc2nn(Cc3ccc(S(C)(=O)=O)cc3)c(=O)c3ccccc23)[nH]n1 [Example A-14, 2-(4-Methanesulfonyl-benzyl)-4-(5-methyl-2H-pyrazol-3-ylamino)-2H-phthalazin-1-one]",1 to 100
4,"Cc1cc(Nc2nn(C(C)C)c(=O)c3cc(N(C)Cc4ccncc4)ccc23)n[nH]1 [Example I-2, 2-Isopropyl-4-(5-methyl-1H-pyrazol-3-ylamino)-7-(methyl-pyridin-4-ylmethyl-amino)-2H-phthalazin-1-one]",1 to 100
5,"Cc1cc(Nc2nn(C(C)C)c(=O)c3cc(S(C)(=O)=O)ccc23)n[nH]1 [Example H-2, 2-Isopropyl-7-methanesulfonyl-4-(5-methyl-1H-pyrazol-3-ylamino)-2H-phthalazin-1-one]",1 to 100
6,"Cc1cc(Nc2nn(Cc3cccc(C(=O)O)c3)c(=O)c3ccccc23)n[nH]1 [Example A-24, 3-[4-(5-Methyl-1H-pyrazol-3-ylamino)-1-oxo-1H-phthalazin-2-ylmethyl]-benzoic acid]",1 to 100
7,"COc1ccc2c(Nc3cc(C)[nH]n3)nn(Cc3ccccc3)c(=O)c2c1 [Example G-8, 2-Benzyl-7-methoxy-4-(5-methyl-1H-pyrazol-3-ylamino)-2H-phthalazin-1-one]",1 to 100
8,"Cc1cc(Nc2nn(Cc3cccnc3)c(=O)c3ccccc23)[nH]n1 [Example A-18, 4-(5-Methyl-2H-pyrazol-3-ylamino)-2-pyridin-3-ylmethyl-2H-phthalazin-1-one]",1 to 100
9,"COCC(C)n1nc(Nc2cc(C)n[nH]2)c2ccccc2c1=O (stereo not drawn) [Example O-2, 2-(2-Methoxy-1-methyl-ethyl)-4-(5-methyl-2H-pyrazol-3-ylamino)-2H-phthalazin-1-one]",100 to 1000
10,"CNc1ccc2c(Nc3cc(C)[nH]n3)nn(C(C)C)c(=O)c2c1 [Example I-12, 2-Isopropyl-7-methylamino-4-(5-methyl-1H-pyrazol-3-ylamino)-2H-phthalazin-1-one]",1 to 100
11,"Cc1cc(Nc2nn(C(C)C)c(=O)c3cc(CN4CCN(C)CC4)ccc23)n[nH]1 [Example L-1, 2-Isopropyl-7-(4-methyl-piperazin-1-ylmethyl)-4-(5-methyl-1H-pyrazol-3-ylamino)-2H-phthalazin-1-one]",1 to 100
12,"Cc1cc(Nc2nn(C(C)C)c(=O)c3cc(NCCN4CCOCC4)ccc23)n[nH]1 [Example I-11, 2-Isopropyl-4-(5-methyl-1H-pyrazol-3-ylamino)-7-(2-morpholin-4-yl-ethylamino)-2H-phthalazin-1-one]",1 to 100
13,"CC(=O)Nc1ccc(Cn2nc(Nc3cc[nH]n3)c3ccccc3c2=O)cc1 [Example D-2, N-{4-[1-Oxo-4-(1H-pyrazol-3-ylamino)-1H-phthalazin-2-ylmethyl]-phenyl}-acetamide]",555
14,"CONC(=O)c1ccc2c(Nc3cc(C)[nH]n3)nn(C(C)C)c(=O)c2c1 [Example M-4, 3-Isopropyl-1-(5-methyl-1H-pyrazol-3-ylamino)-4-oxo-3,4-dihydro-phthalazine-6-carboxylic acid methoxy-amide]",1 to 100
15,"Cc1cc(Nc2nn(C(C)C)c(=O)c3ccc(N(C)C)cc23)n[nH]1 [Example F-7, 2-Isopropyl-4-(5-methyl-1H-pyrazol-3-ylamino)-6-dimethylamino-2H-phthalazin-1-one]",100 to 1000
16,"CC(=O)N(C)c1ccc2c(Nc3cc(C)[nH]n3)nn(C(C)C)c(=O)c2c1 [Example I-5, N-[3-Isopropyl-1-(5-methyl-1H-pyrazol-3-ylamino)-4-oxo-3,4-dihydro-phthalazin-6-yl]-N-methyl-acetamide]",1 to 100
17,"Cc1cc(Nc2nn(C(C)C)c(=O)c3cc(C(=O)O)ccc23)n[nH]1 [Example M-1, 3-Isopropyl-1-(5-methyl-1H-pyrazol-3-ylamino)-4-oxo-3,4-dihydro-phthalazine-6-carboxylic acid]",1 to 100
18,"Cc1cc(Nc2nn(C(C)C)c(=O)c3ccccc23)n[nH]1 [Example A-23, 2-Isopropyl-4-(5-methyl-1H-pyrazol-3-ylamino)-2H-phthalazin-1-one]",1 to 100
19,"Cc1cc(Nc2nn(C(C)C)c(=O)c3cc(N(C)C)ccc23)n[nH]1 [Example F-6, 2-Isopropyl-4-(5-methyl-1H-pyrazol-3-ylamino)-7-dimethylamino-2H-phthalazin-1-one]",1 to 100

# The next lines start with the values.
row,IC50 [nM],SMILES
1,1 to 100,"CCOC(=O)Nc1ccc(-n2nc(Nc3cc(C)[nH]n3)c3ccccc3c2=O)cc1 [Example Y-2, {4-[4-(5-Methyl-1H-pyrazol-3-ylamino)-1-oxo-1H-phthalazin-2-yl]-phenyl}-carbamic acid ethyl ester]"
2,1 to 100,"COc1ccc(Cn2nc(Nc3cc(C)[nH]n3)c3ccccc3c2=O)cc1 [Example A-11, 2-(4-Methoxy-benzyl)-4-(5-methyl-1H-pyrazol-3-ylamino)-2H-phthalazin-1-one]"
3,100 to 1000,"Cc1ccc(-n2nc(Nc3cc[nH]n3)c3ccccc3c2=O)cc1 [Example A-10, 4-(1H-Pyrazol-3-ylamino)-2-p-tolyl-2H-phthalazin-1-one]"
4,1 to 100,"Cc1cc(Nc2nn(-c3ccc4ccccc4c3)c(=O)c3ccccc23)n[nH]1 [Example R-3, 4-(5-Methyl-1H-pyrazol-3-ylamino)-2-naphthalen-2-yl-2H-phthalazin-1-one]"
5,1 to 100,"Cc1cc(Nc2nn(-c3ccc(NS(C)(=O)=O)cc3)c(=O)c3ccccc23)n[nH]1 [Example T-5, N-{4-[4-(5-Methyl-1H-pyrazol-3-ylamino)-1-oxo-1H-phthalazin-2-yl]-phenyl}-methanesulfonamide]"
6,1 to 100,"Cc1cc(Nc2nn(-c3ccc(-c4ccccc4C)cc3)c(=O)c3ccccc23)n[nH]1 [Example Q-2, 2-(2′-Methyl-biphenyl-4-yl)-4-(5-methyl-1H-pyrazol-3-ylamino)-2H-phthalazin-1-one]"
7,1 to 100,"Cc1cc(Nc2nn(-c3ccc(F)cc3)c(=O)c3ccccc23)n[nH]1 [Example A-7, 2-(4-Fluoro-phenyl)-4-(5-methyl-1H-pyrazol-3-ylamino)-2H-phthalazin-1-one]"
8,1 to 100,"Cc1cc(Nc2nn(-c3cccc(C(C)(C)C)c3)c(=O)c3ccccc23)n[nH]1 [Example X-2, 2-(3-tert-Butyl-phenyl)-4-(5-methyl-1H-pyrazol-3-ylamino)-2H-phthalazin-1-one]"
9,1 to 100,"COc1ccc(-n2nc(Nc3cc(C)[nH]n3)c3ccccc3c2=O)cc1 [Example A-9, 2-(4-Methoxy-phenyl)-4-(5-methyl-1H-pyrazol-3-ylamino)-2H-phthalazin-1-one]"
10,100 to 1000,"CC(=O)Nc1ccc(-n2nc(Nc3cc(C)[nH]n3)c3ccccc3c2=O)cc1 [Example T-1, N-{4-[4-(5-Methyl-1H-pyrazol-3-ylamino)-1-oxo-1H-phthalazin-2-yl]-phenyl}-acetamide]"

# Test system: HCT 116 cells
# Experiment: CellTiter-Glo assay in HCT 116 cells
# Type: cell-based, human
# Details: Homo sapiens, HCT-116, 120 h, 5 days incubation, 30 μM to 0.0015 μM
# Description: CellTiter-Glo™ Assay in HCT 116 Cells
# The CellTiter-Glo™ Luminescent Cell Viability Assay (Promega) is a homogeneous method of determining the number of viable cells in culture based on quantitation of the ATP present, which signals the presence of metabolically active cells.
# HCT 116 cells (human colon carcinoma, ATCC-No. CCl-247) were cultivated in RPMI 1640 medium with GlutaMAX™ I (Invitrogen, Cat-No. 61870-010), 2.5% Fetal Calf Serum (FCS, Sigma Cat-No. F4135 (FBS)); 100 Units/ml penicillin/100 μg/ml streptomycin (=Pen/Strep from Invitrogen Cat. No. 15140). For the assay the cells were seeded in 384 well plates, 1000 cells per well, in the same medium. The next day the test compounds were added in various concentrations ranging from 30 μM to 0.0015 μM (10 concentrations, 1:3 diluted). After 5 days the CellTiter-Glo™ assay was done according to the instructions of the manufacturer (CellTiter-Glo™ Luminescent Cell Viability Assay, from Promega). In brief: the cell-plate was equilibrated to room temperature for approximately 30 minutes and than the CellTiter-Glo™ reagent was added. The contents were carefully mixed for 15 minutes to induce cell lysis. After 45 minutes the luminescent signal was measured in Victor 2, (scanning multiwell spectrophotometer, Wallac).
# 1st. Day: • Medium: RPMI 1640 with GlutaMAX™ I (Invitrogen, Cat-Nr. 61870), 5% FCS (Sigma Cat.-No. F4135), Pen/Strep (Invitrogen, Cat No. 15140). • HCT116 (ATCC-No. CCl-247): 1000 cells in 60 μl per well of 384 well plate (Greiner 781098, μClear-plate white) • After seeding incubate plates 24 h at 37° C., 5% CO2
# 2nd. Day: Induction (Treatment with Compounds, 10 Concentrations):
# In order to achieve a final concentration of 30 μM as highest concentration 3.5 μl of 10 mM compound stock solution were added directly to 163 μl media. Then step e) of the dilution procedure described below, was followed.
row,IC50 [µM],SMILES
1,0.1 to 10,"Cc1cc(Nc2nn(C(C)C)c(=O)c3ccc(F)cc23)n[nH]1 [Example E-3, 6-Fluoro-2-isopropyl-4-(5-methyl-1H-pyrazol-3-ylamino)-2H-phthalazin-1-one]"
